# In ChEMBL document CHEMBL1201862, “PubChem BioAssay data set” (2004):
# “And” between values parts separate entries of the source, which are not always exact repeats. Equal entries are not always repeated. The source made the active and inactive calls. Cut-off read from the data, not from the text of the source, for most assays here: actives have a measured EC50 and inactives only a lower limit.
# Key:
# Streptokinase A = biological target: T1, Streptokinase A (Streptococcus pyogenes serotype M1, UniProt P10520); experiment: viability-normalized secreted streptokinase activity reduction – plasminogen activation absorbance, OD405, dose response (AID 1914); format: functional, Streptococcus pyogenes M1 GAS;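 note: secreted streptokinase activity via plasminogen activation per viability signal from cell pellet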
# T1 sequence (P10520 whole entry): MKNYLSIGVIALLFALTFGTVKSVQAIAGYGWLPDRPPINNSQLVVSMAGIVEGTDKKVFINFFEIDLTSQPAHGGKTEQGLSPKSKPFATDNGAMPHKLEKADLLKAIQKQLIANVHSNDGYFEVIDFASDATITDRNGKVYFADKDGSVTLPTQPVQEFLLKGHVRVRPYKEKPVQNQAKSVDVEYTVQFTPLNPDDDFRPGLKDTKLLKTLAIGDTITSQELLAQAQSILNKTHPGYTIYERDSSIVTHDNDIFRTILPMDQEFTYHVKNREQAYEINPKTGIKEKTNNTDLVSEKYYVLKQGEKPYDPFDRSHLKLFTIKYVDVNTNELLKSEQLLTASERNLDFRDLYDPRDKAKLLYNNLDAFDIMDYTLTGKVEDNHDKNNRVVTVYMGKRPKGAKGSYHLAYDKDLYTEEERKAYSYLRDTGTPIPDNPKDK
# Streptococcus = experiment: GAS UMAA2166 growth inhibition – luminescence, BacTiterGlo, counter-screen for streptokinase expression inhibitor project, dose response (AID 1915); format: functional, organism-based;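 note: potency for reduction of bacterial viability or growth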
# [1] = test system: Streptococcus sp. 'group A'; experiment: Streptococcus pyogenes SK(-)GAS viability under kanamycin – luminescence, BacTiterGlo, confirmation, counter-screen for streptokinase expression inhibitor project, dose response (AID 1900); format: functional, organism-based
# Cytochrome P450 3A4 = Cytochrome P450 3A4 (Homo sapiens, UniProt P08684);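 note: CYP3A4 tested as one member of a cytochrome P450 panel screen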
# Sequence of Cytochrome P450 3A4 (P08684 whole entry): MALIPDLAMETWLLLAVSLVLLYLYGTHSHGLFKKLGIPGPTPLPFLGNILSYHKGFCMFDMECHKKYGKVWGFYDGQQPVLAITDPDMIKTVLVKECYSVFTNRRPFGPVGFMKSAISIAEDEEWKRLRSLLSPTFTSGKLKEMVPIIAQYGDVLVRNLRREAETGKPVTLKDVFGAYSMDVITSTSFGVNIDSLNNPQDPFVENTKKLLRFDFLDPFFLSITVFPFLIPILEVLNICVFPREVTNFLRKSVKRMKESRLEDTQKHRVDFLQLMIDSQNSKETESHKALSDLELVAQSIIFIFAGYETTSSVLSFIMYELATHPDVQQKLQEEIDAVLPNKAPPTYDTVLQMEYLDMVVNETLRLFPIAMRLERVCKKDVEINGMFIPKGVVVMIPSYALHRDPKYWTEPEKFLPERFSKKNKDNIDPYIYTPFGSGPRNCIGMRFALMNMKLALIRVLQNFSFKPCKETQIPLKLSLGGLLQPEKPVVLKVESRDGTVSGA
# Paired box protein Pax-8 = Paired box protein Pax-8 (Homo sapiens, UniProt Q06710); experiment: PAX8 transcriptional activity inhibition in RMG-I – RMG-I cells, luciferase, cherry-pick, dose response (AID 687027); format: functional, cell-based;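 note: luciferase reporter driven by Pax8 target thyroperoxidase promoter measured by SteadyGlo luminescence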
# Sequence of Paired box protein Pax-8 (Q06710 whole entry): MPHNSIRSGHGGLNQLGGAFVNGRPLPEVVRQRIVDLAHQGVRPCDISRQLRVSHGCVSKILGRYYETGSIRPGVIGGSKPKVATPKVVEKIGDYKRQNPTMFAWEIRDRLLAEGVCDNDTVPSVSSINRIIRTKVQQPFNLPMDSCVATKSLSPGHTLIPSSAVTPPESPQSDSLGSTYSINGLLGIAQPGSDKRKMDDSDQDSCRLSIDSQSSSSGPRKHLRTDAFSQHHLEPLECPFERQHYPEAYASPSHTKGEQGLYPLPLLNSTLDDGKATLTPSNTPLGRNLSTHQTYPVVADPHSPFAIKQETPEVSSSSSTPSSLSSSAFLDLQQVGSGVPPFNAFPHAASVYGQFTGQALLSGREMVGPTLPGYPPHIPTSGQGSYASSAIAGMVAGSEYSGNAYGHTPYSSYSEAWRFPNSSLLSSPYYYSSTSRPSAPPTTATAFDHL
# [2] = Luminescence Cell-Based Dose Retest to Confirm Inhibitors of Cancer Stem Cells. [Related pubchem assays (depositor defined):AID2717, AID2721]; format: functional; conditions: Homo sapiens
# [3] = viability of uninfected HEp-2 cells – cell-based, HTS, cytotoxicity control for RSV inhibitor project, dose response (AID 2410); format: functional; conditions: human respiratory syncytial virus
# [4] = Trypanosoma cruzi growth suppression in host cells – NIH3T3 host cells, beta-gal luminescence, confirmation (AID 2044); format: functional, cell-based;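 note: intracellular parasites grown in NIH/3T3 mouse fibroblasts as host cells; luminescent beta-galactosidase reporter signal from transgenic T. cruzi replicating inside host cells; inhibitors lower the luminescence signal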
# [5] = NIH3T3 cell viability loss – ATP luminescence, mouse fibroblasts, counter-screen, dose response (AID 2010); format: functional, cell-based;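 note: cells exposed to compound for about 90 hours before reading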
structure (smiles),measurement,setting,value
CCC1(C)Cc2ccccc2-c2nc(-c3ccccc3)oc(=O)c21 (stereo not drawn),EC50,Streptokinase A,13.2 µM (active)
same,EC50,Streptococcus,> 150 µM (not active)
same,EC50,[1],14 µM (active)
CCOc1ccc(-c2nnc3ccc(SC(C)C)nn23)cc1,EC50,Streptokinase A,> 150 µM (not active)
same,EC50,Streptococcus,22.9 µM (active)
same,EC50,[1],2.79 µM (active)
O=C(/C=C/c1ccccc1)NCCc1ccccc1,EC50,Streptokinase A,48.7 µM (active)
same,EC50,Streptococcus,> 150 µM (not active)
same,EC50,[1],> 150 µM (not active)
CCN(CC)C(=O)N[C@H]1C[C@H]2c3cccc4[nH]cc(c34)C[C@@H]2N(C)C1,AC50,Cytochrome P450 3A4,10 µM (inconclusive)
Cn1nnnc1Sc1ncnc2scc(-c3cccc4c3sc3ccccc34)c12,AC50,Paired box protein Pax-8,3.89 µM (active)
same,AC50,[2],1.25 µM (active)
Cc1ccc(Nc2cc(C)nc(-c3ccccc3O)n2)cc1,CC50,[3],14.6 µM (active)
CON(C)C(=O)c1nnc2c3ccccc3n(S(=O)(=O)c3ccc(C)cc3)c2n1,AC50,Cytochrome P450 3A4,3.98 µM (inconclusive) and 3.16 µM (inconclusive)
COC(=O)c1ccc(C(=O)OC)c(NC(=O)CN(C)Cc2cccc(Cl)c2Cl)c1,EC50,Streptokinase A,13.9 µM (active)
same,EC50,Streptococcus,> 150 µM (not active)
same,EC50,[1],11.2 µM (active)
C=CCn1c2ccccc2c2nnc(SCc3nc(O)[nH]c3C(=O)CCCCC(=O)OCC)nc21,CC50,[3],> 50 µM (active)
COc1ccc(-c2nc3cnc(Nc4cccc(OC)c4)nc3n(Cc3cccs3)c2=O)cc1,AC50,Cytochrome P450 3A4,6.31 µM (inconclusive)
CC(=O)NNc1cccc(Cl)n1,AC50,[2],> 195 µM (inactive)
COc1ccc(N2CCN(C(S)=Nc3cc(C)ccc3C)CC2)cc1,AC50,Cytochrome P450 3A4,3.16 µM (inconclusive)
Cc1nn(CC(=O)Nc2c(F)c(F)cc(F)c2F)c(=O)c2cccn12,EC50,Streptokinase A,> 150 µM (not active)
same,EC50,Streptococcus,> 150 µM (not active)
same,EC50,[1],> 150 µM (not active)
Cc1ccsc1C1C=C(c2cccc(Br)c2)Nc2ncnn21 (stereo not drawn),EC50,Streptokinase A,> 150 µM (not active)
same,EC50,Streptococcus,> 150 µM (not active)
same,EC50,[1],7.49 µM (active)
CCS(=O)(=O)N1Cc2ccccc2CC1C(=O)Nc1nnc(SCc2c(Cl)cccc2Cl)s1 (stereo not drawn),AC50,Paired box protein Pax-8,34.9 µM (active)
CCCCCn1c(=O)[nH]c2cc(C(=O)NCCCN(C)Cc3ccccc3)ccc2c1=O,EC50,[4],911 nM (active)
same,EC50,[5],> 60 µM (inconclusive)
O=C(Nc1ccccc1Cl)c1cccc(COc2cc(Cl)ccc2Cl)c1,CC50,[3],> 50 µM (active)
COc1ccc(C)cc1NC(=O)CNC(c1ccccc1)c1ccccc1,EC50,Streptokinase A,> 150 µM (not active)
same,EC50,Streptococcus,96.1 µM (active)
same,EC50,[1],28.9 µM (active)
O=c1c2ccc([N+](=O)[O-])cc2ncn1CCOc1ccc(Cl)cc1,EC50,[4],145 nM (active)
same,EC50,[5],> 30 µM (not active)
COc1ccccc1-c1c(C)nn2c(N)c(-c3ccccc3)cnc12,CC50,[3],24.2 µM (active)
CCN(CC(=O)Nc1ccc(S(=O)(=O)N2CCCCC2)cc1)Cc1ccccc1,CC50,[3],28 µM (active)
CC(=O)OC[C@@H]1O[C@H](CCO/N=C(\C)CCN2CCCc3nc(C)c(C)cc32)C=C[C@@H]1OC(C)=O,AC50,Cytochrome P450 3A4,3.98 µM (inconclusive)
CCC1CCc2sc(C(=O)NC3CCN(Cc4ccccc4)CC3)cc2C1 (stereo not drawn),EC50,[4],480 nM (active)
same,EC50,[5],5.09 µM (active)
COCCNC(=O)CCC1CCN(Cc2ccc(-c3ccccc3)cc2)CC1,EC50,[4],1770 nM (active)
same,EC50,[5],> 60 µM (not active)
Cc1nn2c(N3CCN(C)CC3)cc(C(C)(C)C)nc2c1-c1ccccc1,EC50,[4],145 nM (active)
same,EC50,[5],4.77 µM (active)
CCCCn1c(=N)n(CC(=O)C(C)(C)C)c2ccccc21,EC50,[4],5540 nM (active)
same,EC50,[5],> 60 µM (not active)
S=C(Nc1ccccc1)Nc1nc2ccccc2n1CCOc1ccc(Br)cc1,AC50,[2],11.6 µM (active)
CC1=C(C(N)=O)C(c2cccnc2)n2nc(-c3cccc(C)c3)nc2N1 (stereo not drawn),EC50,[4],> 60000 nM (not active)
same,EC50,[5],> 60 µM (not active)
O=C(CN1CCCC1)Nc1ccc(NC(=O)Nc2ccccc2)cc1,EC50,Streptokinase A,> 150 µM (not active)
same,EC50,Streptococcus,> 150 µM (not active)
same,EC50,[1],> 150 µM (not active)
COC(=O)C1=CN(Cc2ccc(OC)c(OC)c2)C=C(C(=O)OC)C1c1cccc(O)c1,EC50,[4],311 nM (active)
same,EC50,[5],> 60 µM (not active)
CC(C)Oc1ccc(C(=O)Nc2nnc(C3=COCCO3)o2)cc1,EC50,Streptokinase A,> 150 µM (not active)
same,EC50,Streptococcus,14.8 µM (active)
same,EC50,[1],0.766 µM (active)
COc1ccc(Br)cc1C(=O)Nc1ccccc1N1CCN(C(=O)c2ccccc2)CC1,EC50,[4],1460 nM (active)
same,EC50,[5],> 60 µM (not active)
same,CC50,[3],29 µM (active)
COc1cccc2cc(-c3csc(CCn4nc(C)cc4C)n3)c(=O)oc12,CC50,[3],41.8 µM (active)
Cc1ccc(CN2CCN(Cc3ccc(-n4cccn4)cc3C)CC2CCO)cc1 (stereo not drawn),EC50,[4],651 nM (active)
same,EC50,[5],> 30 µM (not active)
Cc1nnc(SCC2=C(C(=O)O)N3C(=O)C(NC(=O)c4cc(F)c(F)cc4Cl)C3SC2)s1 (stereo not drawn),EC50,Streptokinase A,> 150 µM (not active)
same,EC50,Streptococcus,0.815 µM (active)
same,EC50,[1],0.515 µM (active)
COc1ccc(CN2CCc3ccc(NC(=O)c4ccncc4)cc3C2)c(F)c1,EC50,Streptokinase A,> 150 µM (not active)
same,EC50,Streptococcus,> 150 µM (not active)
same,EC50,[1],> 150 µM (not active)
Cc1cccc(NC(=O)c2[nH]cnc2C(=O)N[C@@H](Cc2ccccc2)C(=O)OC(C)(C)C)c1,EC50,Streptococcus,3.87 µM (active)
same,EC50,[1],2.46 µM (active)
COc1ccc(NC(=O)N2CC3(CCN(C(=O)c4ccncc4)CC3)C2)cc1,AC50,Cytochrome P450 3A4,15.8 µM (inconclusive)
COc1ccccc1CNc1ccnc(-c2ccccc2Cl)n1,AC50,Cytochrome P450 3A4,2.51 µM (inconclusive)
CC[C@H]1CC2CN3CCc4c([nH]c5c([C@H]6C[C@H]7[C@H](CC)CN(C)[C@@H](Cc8c6[nH]c6ccccc86)[C@H]7C(=O)OC)c(OC)ccc45)C(C(=O)OC)(C2)C13,AC50,[2],1.99 µM (active)
CC(C)c1ccc(C(=O)NCCCN(C)C)cc1,EC50,[4],1270 nM (active)
same,EC50,[5],> 60 µM (not active)
Cc1cc(C)c2c(C(C)(C)C)nn(-c3ccccc3)c2n1,EC50,Streptokinase A,30.2 µM (active)
same,EC50,Streptococcus,15.7 µM (active)
same,EC50,[1],15.1 µM (active)
Cc1cccc(-n2cc(-c3ccccc3)c3c(N4CCOCC4)ncnc32)c1,AC50,[2],5.24 µM (active)
Cc1ccc(CN2CCCC(C(=O)c3sccc3C)C2)o1 (stereo not drawn),EC50,[4],719 nM (active)
same,EC50,[5],> 60 µM (not active)
CCN(CC(=O)Nc1c(C(=O)OC)[nH]c2ccc(C)cc12)c1ccc2c(c1)OCO2,CC50,[3],> 50 µM (active)
Cc1c(Cl)cnc(NC(=O)COC(=O)CCS(=O)(=O)c2ccccc2)c1Cl,AC50,Cytochrome P450 3A4,15.8 µM (inconclusive)
O=Cc1ccc(Oc2cc(-c3ccccc3)nc(-c3ccccc3)n2)cc1,AC50,[2],3.14 µM (active)
O=C(c1cccc(F)c1)N1CCN(c2cc(N3CCCCC3)c(F)cc2[N+](=O)[O-])CC1,CC50,[3],22.2 µM (active)
O=C(NCC1CCCO1)c1ccc([N+](=O)[O-])s1 (stereo not drawn),EC50,[4],728 nM (active)
same,EC50,[5],> 30 µM (not active)
Nc1ncc2c(n1)-c1cc(Cl)ccc1SC2,EC50,[4],1550 nM (active)
same,EC50,[5],> 60 µM (not active)
Cc1cc(=O)oc2c3c(cc(OCC(=O)NC4CC4)c12)OC(C)(C)CC3,EC50,Streptokinase A,> 150 µM (not active)
same,EC50,Streptococcus,> 150 µM (not active)
same,EC50,[1],> 150 µM (not active)
O=C(Nc1cccc([N+](=O)[O-])c1)C12CC3CC(C1)CC(n1cnc([N+](=O)[O-])n1)(C3)C2,EC50,[4],102 nM (active)
same,EC50,[5],> 60 µM (not active)
COc1ccc2c(c1)CCC1=C2N=C(S)NC1c1ccc(N(C)C)cc1 (stereo not drawn),EC50,[4],2620 nM (active)
same,EC50,[5],> 60 µM (not active)
C[C@H](CO)N1C[C@H](C)[C@@H](CN(C)S(=O)(=O)c2ccc(F)cc2)Oc2ccc(NC(=O)Nc3ccc(C(F)(F)F)cc3)cc2C1=O,AC50,[2],4.25 µM (active)
COc1ccc(/C=N/NC(=O)CCn2cnc(-c3ccccc3)c2-c2ccccc2)cc1OC,AC50,[2],0.404 µM (active)
C[C@@H]1CN([C@H](C)CO)C(=O)c2cc(NC(=O)Nc3ccc(C(F)(F)F)cc3)ccc2O[C@@H](C)CCCCO[C@H]1CN(C)Cc1ccccc1,AC50,Paired box protein Pax-8,12.2 µM (active)
C/C(=N\c1ccc(C)cc1C)c1sc2ccccc2c1O,CC50,[3],17.8 µM (active)
COc1ccc(/N=C2\SC(CC(=O)Nc3ccccc3F)C(=O)N2Cc2ccco2)cc1 (stereo not drawn),CC50,[3],25.1 µM (active)
Clc1ccc(-c2csc(N/N=C\c3cccnc3)n2)cc1,EC50,[4],1840 nM (active)
same,EC50,[5],> 60 µM (not active)
COC(=O)c1cc(=O)n(Cc2cccs2)/c(=N/c2ccccc2)s1,AC50,[2],5.15 µM (active)
CC12CCC3c4ccc(O)cc4CCC3C1CCC2=O (stereo not drawn),CC50,[3],29.6 µM (active)
CN(C)Cc1c[nH]c2ccccc12 [GRAMINE],AC50,Cytochrome P450 3A4,3.16 µM (inconclusive)
